Measured values reported in patent US8183262B2, “Pyridine derivatives as mGluR2 antagonists” (Hoffmann-La Roche Inc., priority 2007, dated 2012).

| Compound | melting point |
| --- | --- |
| Cc1cc(-c2cc(C(F)(F)F)nc(-c3nc(-c4cccc(S(N)(=O)=O)c4)no3)n2)ccc1C(F)(F)F [Example 129, 3-{5-[4-(3-Methyl-4-trifluoromethyl-phenyl)-6-trifluoromethyl-pyrimidin-2-yl]-[1,2,4}oxadiazol-3-yl]-benzenesulfonamide] | 223.5 °C |
| Cc1cc(-c2cc(C(F)(F)F)nc(-c3nc(-c4ccc(N)nc4)no3)n2)ccc1C(F)(F)F [Example 130, 5-{5-[4-(3-Methyl-4-trifluoromethyl-phenyl)-6-trifluoromethyl-pyrimidin-2-yl]-[1,2,4]oxadiazol-3-yl}-pyridin-2-ylamine] | 223 °C |
| Cc1cc(-c2ccc(C(F)(F)F)c(C)c2)nc(-c2ccnc(-c3ccc(N)nc3)c2)n1 [Example 131, 4-[4-Methyl-6-(3-methyl-4-trifluoromethyl-phenyl)-pyrimidin-2-yl]-[2,3′]bipyridinyl-6′-ylamine] | 188 °C |
| Cc1cc(-c2ccc(C(F)(F)F)c(C)c2)nc(-c2cccc(-c3ccc(N)nc3)c2)n1 [Example 132, 5-{3-[4-Methyl-6-(3-methyl-4-trifluoromethyl-phenyl)-pyrimidin-2-yl]-phenyl}-pyridin-2-ylamine] | 153 °C |
| Nc1ccc(-c2cccc(-c3nc(-c4ccc(C(F)(F)F)c(OCC(F)(F)F)c4)cc(C(F)(F)F)n3)c2)cn1 [Example 133, 5-(3-{4-[3-(2,2,2-Trifluoro-ethoxy)-4-trifluoromethyl-phenyl]-6-trifluoromethyl-pyrimidin-2-yl}-phenyl)-pyridin-2-ylamine] | 220 °C |
| Nc1ccc(-c2cn(-c3nc(-c4ccc(C(F)(F)F)c(OCC(F)(F)F)c4)cc(C(F)(F)F)n3)cn2)cn1 [Example 134, 5-(1-{4-[3-(2,2,2-Trifluoro-ethoxy)-4-trifluoromethyl-phenyl]-6-trifluoromethyl-pyrimidin-2-yl}-1H-imidazol-4-yl)-pyridin-2-ylamine] | 285 °C |
| Nc1ccc(-c2cc(-c3nc(-c4ccc(C(F)(F)F)c(OCC(F)(F)F)c4)cc(C(F)(F)F)n3)ccn2)cn1 [Example 135, 4-{4-[3-(2,2,2-Trifluoro-ethoxy)-4-trifluoromethyl-phenyl]-6-trifluoromethyl-pyrimidin-2-yl}-[2,3′]bipyridinyl-6′-ylamine] | 223 °C |
| Cc1cc(-c2ccc(Cl)cc2)nc(-c2nc(-c3ccc(S(N)(=O)=O)cc3)no2)n1 [Example 136, 4-{5-[4-(4-Chloro-phenyl)-6-methyl-pyrimidin-2-yl]-[1,2,4]oxadiazol-3-yl}-benzenesulfonamide] | 297 °C |
| Cc1cc(-c2ccc(Cl)cc2)nc(-c2nc(-c3ccc(N)nc3)no2)n1 [Example 137, 5-{5-[4-(4-Chloro-phenyl)-6-methyl-pyrimidin-2-yl]-[1,2,4]oxadiazol-3-yl}-pyridin-2-ylamine] | 258 °C |
| Nc1ncc(-c2cn(-c3nc(-c4cccc(C(F)(F)F)c4)cc(C(F)(F)F)n3)cn2)cn1 [Example 139, 5-{1-[4-Trifluoromethyl-6-(3-trifluoromethyl-phenyl)-pyrimidin-2-yl]-1H-imidazol-4-yl}-pyrimidin-2-ylamine] | 223 °C |
| Nc1ccc(-c2cccc(-c3nc(-c4cccc(C(F)(F)F)c4)cc(C(F)(F)F)n3)c2)cn1 [Example 140, 5-{3-[4-Trifluoromethyl-6-(3-trifluoromethyl-phenyl)-pyrimidin-2-yl]-phenyl}-pyridin-2-ylamine] | 162 °C |
| Nc1ccc(-c2cc(-c3nc(-c4cccc(C(F)(F)F)c4)cc(C(F)(F)F)n3)ccn2)cn1 [Example 141, 4-[4-Trifluoromethyl-6-(3-trifluoromethyl-phenyl)-pyrimidin-2-yl]-[2,3′]bipyridinyl-6′-ylamine] | 196 °C |
| Cc1nc(-c2ccc(N)nc2)cn1-c1nc(-c2ccc(C(F)(F)F)cc2)cc(C(F)(F)F)n1 [Example 142, 5-{2-Methyl-1-[4-trifluoromethyl-6-(4-trifluoromethyl-phenyl)-pyrimidin-2-yl]-1H-imidazol-4-yl}-pyridin-2-ylamine] | 285 °C |
| Cc1nc(-c2cnc(N)nc2)cn1-c1nc(-c2ccc(C(F)(F)F)cc2)cc(C(F)(F)F)n1 [Example 143, 5-{2-Methyl-1-[4-trifluoromethyl-6-(4-trifluoromethyl-phenyl)-pyrimidin-2-yl]-1H-imidazol-4-yl}-pyrimidin-2-ylamine] | 286.5 °C |
| Cc1cc(-c2ccc(Cl)c(Cl)c2)nc(-n2cnc(-c3cnc(N)nc3)c2)n1 [Example 144, 5-{1-[4-(3,4-Dichloro-phenyl)-6-methyl-pyrimidin-2-yl]-1H-imidazol-4-yl}-pyrimidin-2-ylamine] | 255.5 °C |
| Cc1cc(-c2ccc(Cl)c(Cl)c2)nc(-n2cnc(-c3ccc(N)nc3)c2)n1 [Example 145, 5-{1-[4-(3,4-Dichloro-phenyl)-6-methyl-pyrimidin-2-yl]-1H-imidazol-4-yl}-pyridin-2-ylamine] | 213 °C |
| Cc1cc(-c2ccc(Cl)c(Cl)c2)nc(-c2ccnc(-c3ccc(N)nc3)c2)n1 [Example 146, 4-[4-(3,4-Dichloro-phenyl)-6-methyl-pyrimidin-2-yl]-[2,3′]bipyridinyl-6′-ylamine] | 205 °C |

| Compound | melting point |
| --- | --- |
| Cc1cc(-c2ccc(Cl)c(Cl)c2)nc(-c2cccc(-c3ccc(N)nc3)c2)n1 [Example 147, 5-{3-[4-(3,4-Dichloro-phenyl)-6-methyl-pyrimidin-2-yl]-phenyl}-pyridin-2-ylamine] | 170.5 °C |
| FC(F)(F)c1ccc(-c2cc(C(F)(F)F)nc(-n3cnc(-c4cccnc4)n3)n2)cc1 [Example 149, 2-(3-Pyridin-3-yl-[1,2,4]triazol-1-yl)-4-trifluoromethyl-6-(4-trifluoromethyl-phenyl)-pyrimidine] | 190 °C |
| Cc1cc(-c2ccc(C(F)(F)F)cc2)nc(-n2cc(-c3ccc(N)nc3)nc2C)n1 [Example 150, 5-{2-Methyl-1-[4-methyl-6-(4-trifluoromethyl-phenyl)-pyrimidin-2-yl]-1H-imidazol-4-yl}-pyridin-2-ylamine] | 227.5 °C |
| Cc1cc(-c2ccc(C(F)(F)F)cc2)nc(-n2cnc(-c3ccc(N)nc3)n2)n1 [Example 151, 5-{1-[4-Methyl-6-(4-trifluoromethyl-phenyl)-pyrimidin-2-yl]-1H-[1,2,4]triazol-3-yl}-pyridin-2-ylamine] | 244 °C |
| CC(C)c1cc(-c2ccc(C(F)(F)F)cc2)nc(-n2cnc(-c3ccc(N)nc3)c2)n1 [Example 152, 5-{1-[4-Isopropyl-6-(4-trifluoromethyl-phenyl)-pyrimidin-2-yl]-1H-imidazol-4-yl}-pyridin-2-ylamine] | 274.5 °C |
| CC(C)c1cc(-c2ccc(C(F)(F)F)cc2)nc(-n2cnc(-c3cnc(N)nc3)c2)n1 [Example 153, 5-{1-[4-Isopropyl-6-(4-trifluoromethyl-phenyl)-pyrimidin-2-yl]-1H-imidazol-4-yl}-pyrimidin-2-ylamine] | 277 °C |
| Cc1c(-c2ccc(N)nc2)ncn1-c1nc(-c2ccc(C(F)(F)F)cc2)cc(C(F)(F)F)n1 [Example 154, 5-{5-Methyl-1-[4-trifluoromethyl-6-(4-trifluoromethyl-phenyl)-pyrimidin-2-yl]-1H-imidazol-4-yl}-pyridin-2-ylamine] | 252 °C |
| CC(C)(C)NS(=O)(=O)c1cccc(-c2cc(-c3nc(-c4ccc(C(F)(F)F)cc4)cc(C(F)(F)F)n3)ccn2)c1 [Example 156, N-tert-Butyl-3-{4-[4-trifluoromethyl-6-(4-trifluoromethyl-phenyl)-pyrimidin-2-yl]-pyridin-2-yl}-benzenesulfonamide] | 211 °C |
| NS(=O)(=O)c1cccc(-c2cccc(-c3nc(-c4ccc(C(F)(F)F)cc4)cc(C(F)(F)F)n3)c2)c1 [Example 157, 3′-[4-Trifluoromethyl-6-(4-trifluoromethyl-phenyl)-pyrimidin-2-yl]-biphenyl-3-sulfonic acid amide] | 267 °C |
| NS(=O)(=O)c1cccc(-c2cc(-c3nc(-c4ccc(C(F)(F)F)cc4)cc(C(F)(F)F)n3)ccn2)c1 [Example 158, 3-{4-[4-Trifluoromethyl-6-(4-trifluoromethyl-phenyl)-pyrimidin-2-yl]-pyridin-2-yl}-benzenesulfonamide] | 237 °C |
| NS(=O)(=O)c1ccc(-c2cn(-c3nc(-c4ccc(C(F)(F)F)cc4)cc(C(F)(F)F)n3)cn2)cc1 [Example 159, 4-{1-[4-Trifluoromethyl-6-(4-trifluoromethyl-phenyl)-pyrimidin-2-yl]-1H-imidazol-4-yl}-benzenesulfonamide] | 292 °C |
| NS(=O)(=O)c1cccc(-c2cn(-c3nc(-c4ccc(C(F)(F)F)cc4)cc(C(F)(F)F)n3)cn2)c1 [Example 160, 3-{1-[4-Trifluoromethyl-6-(4-trifluoromethyl-phenyl)-pyrimidin-2-yl]-1H-imidazol-4-yl}-benzenesulfonamide] | 198 °C |
| NS(=O)(=O)c1ccc(-c2cccc(-c3nc(-c4ccc(C(F)(F)F)cc4)cc(C(F)(F)F)n3)c2)s1 [Example 161, 5-{3-[4-Trifluoromethyl-6-(4-trifluoromethyl-phenyl)-pyrimidin-2-yl]-phenyl}-thiophene-2-sulfonic acid amide] | 204 °C |
| CC(C)(C)NS(=O)(=O)c1ccc(-c2cc(-c3nc(-c4ccc(C(F)(F)F)cc4)cc(C(F)(F)F)n3)ccn2)s1 [Example 162, 5-{4-[4-Trifluoromethyl-6-(4-trifluoromethyl-phenyl)-pyrimidin-2-yl]-pyridin-2-yl}-thiophene-2-sulfonic acid tert-butylamide] | 237 °C |
| NS(=O)(=O)c1ccc(-c2cn(-c3nc(-c4ccc(C(F)(F)F)cc4)cc(C(F)(F)F)n3)cn2)s1 [Example 163, 5-{1-[4-Trifluoromethyl-6-(4-trifluoromethyl-phenyl)-pyrimidin-2-yl]-1H-imidazol-4-yl}-thiophene-2-sulfonic acid amide] | 281 °C |
| NS(=O)(=O)c1ccc(-c2cc(-c3nc(-c4ccc(C(F)(F)F)cc4)cc(C(F)(F)F)n3)ccn2)s1 [Example 164, 5-{4-[4-Trifluoromethyl-6-(4-trifluoromethyl-phenyl)-pyrimidin-2-yl]-pyridin-2-yl}-thiophene-2-sulfonic acid amide] | 262 °C |
